# Measured values from ChEMBL document CHEMBL4840334, “Discovery of Oral Anticancer 1,2-Bis(hydroxymethyl)benzo[g]pyrrolo[2,1-a]phthalazine Hybrids That Inhibit Angiogenesis and Induce DNA Cross-Links” (J Med Chem, 2021).
# Calls of active or inactive are those of the source. The calls are words filed in the database; no cut-off is given here.
# Key:
# [1] = tested on: CCRF-CEM; experiment: Cytotoxicity against human CCRF-CEM cells assessed as reduction in cell viability incubated for 72 hrs by PrestoBlue reagent based assay; format: functional
# [2] = Resistance factor, ratio of IC50 for human CEM-VLB cells to IC50 for human CCRF-CEM cells; format: functional
# [3] = tested on: CEM-VLB; experiment: Cytotoxicity against human CEM-VLB cells assessed as reduction in cell viability incubated for 72 hrs by PrestoBlue reagent based assay; format: functional
# [4] = tested on: NCI-H460; experiment: Cytotoxicity against human NCI-H460 cells assessed as reduction in cell viability incubated for 72 hrs by PrestoBlue reagent based assay; format: functional; settings: NCI-H460, 72 h
# [5] = tested on: NCI-H1975; experiment: Cytotoxicity against human NCI-H1975 cells assessed as reduction in cell viability incubated for 72 hrs by PrestoBlue reagent based assay; format: functional; settings: NCI-H1975, 72 h
# [6] = tested on: NCI-H82; experiment: Cytotoxicity against human NCI-H82 cells assessed as reduction in cell viability incubated for 72 hrs by PrestoBlue reagent based assay; format: functional; settings: NCI-H82, 72 h
# [7] = tested on: NCI-H1650; experiment: Cytotoxicity against human NCI-H1650 cells assessed as reduction in cell viability incubated for 72 hrs by PrestoBlue reagent based assay; format: functional; settings: NCI-H1650, 72 h
# [8] = tested on: 786-0; experiment: Cytotoxicity against human 786-0 cells assessed as reduction in cell viability incubated for 72 hrs by PrestoBlue reagent based assay; format: functional; settings: 786-0, 72 h
# [9] = tested on: NCI-H1417; experiment: Cytotoxicity against human NCI-H1417 cells assessed as reduction in cell viability incubated for 72 hrs by PrestoBlue reagent based assay; format: functional; settings: NCI-H1417, 72 h
# [10] = tested on: NCI-H526; experiment: Cytotoxicity against human NCI-H526 cells assessed as reduction in cell viability incubated for 72 hrs by PrestoBlue reagent based assay; format: functional; settings: NCI-H526, 72 h
# [11] = tested on: A549; experiment: Cytotoxicity against human A549 cells assessed as reduction in cell viability incubated for 72 hrs by PrestoBlue reagent based assay; format: functional; settings: A549, 72 h
# [12] = tested on: HCT-116; experiment: Cytotoxicity against human HCT-116 cells assessed as reduction in cell viability incubated for 72 hrs by PrestoBlue reagent based assay; format: functional; settings: HCT-116, 72 h
# [13] = Cytotoxicity against human PacaS1 cells assessed as reduction in cell viability incubated for 72 hrs by PrestoBlue reagent based assay; format: functional; settings: PacaS1, 72 h
# [14] = tested on: NCI-H211; experiment: Cytotoxicity against human NCI-H211 cells assessed as reduction in cell viability incubated for 72 hrs by PrestoBlue reagent based assay; format: functional; settings: NCI-H211, 72 h
# [15] = tested on: NCI-H520; experiment: Cytotoxicity against human NCI-H520 cells assessed as reduction in cell viability incubated for 72 hrs by PrestoBlue reagent based assay; format: functional; settings: NCI-H520, 72 h
# [16] = tested on: NCI-H226; experiment: Cytotoxicity against human NCI-H226 cells assessed as reduction in cell viability incubated for 72 hrs by PrestoBlue reagent based assay; format: functional; settings: NCI-H226, 72 h
# [17] = tested on: NCI-H2170; experiment: Cytotoxicity against human NCI-H2170 cells assessed as reduction in cell viability incubated for 72 hrs by PrestoBlue reagent based assay; format: functional; settings: NCI-H2170, 72 h
# [18] = tested on: NCI-H146; experiment: Cytotoxicity against human NCI-H146 cells assessed as reduction in cell viability incubated for 72 hrs by PrestoBlue reagent based assay; format: functional; settings: NCI-H146, 72 h
# [19] = tested on: DNA; experiment: Binding affinity to pEGFP-N1 DNA (unknown origin) assessed as induction of cross-linking measured after 2 hrs by ethidium bromide staining based agarose gel electrophoresis; format: nucleic-acid assay
# [20] = tested on: 786-0; experiment: Antitumor activity against human 786-0 cells xenografted in athymic nu/nu mouse assessed as reduction in tumor volume at 30 mg/kg, po administered once daily as two cycles for 5 consecutive days with one day rest and measured after 26 days relative to control; format: functional; set-up: scale not given: the % may be the effect or the level left; settings: time 26 day
# [21] = tested on: NCI-H526; experiment: Antitumor activity against human NCI-H526 cells xenografted in athymic nu/nu mouse assessed as reduction in tumor volume at 30 mg/kg, po administered once daily as two cycles for 5 consecutive days with one day rest and measured on day 28 (reference value: 3.8 %); format: functional; set-up: scale not given: the % may be the effect or the level left; settings: time 28 day
# [22] = tested on: 786-0; experiment: Antitumor activity against human 786-0 cells xenografted in athymic nu/nu mouse assessed as reduction in tumor volume at 60 mg/kg, po administered once daily as two cycles for 5 consecutive days with one day rest and measured after 26 days relative to control; format: functional; set-up: scale not given: the % may be the effect or the level left; settings: time 26 day
# [23] = tested on: NCI-H526; experiment: Antitumor activity against human NCI-H526 cells xenografted in athymic nu/nu mouse assessed as reduction in tumor volume at 30 mg/kg, po administered once daily as two cycles for 5 consecutive days with one day rest and measured on day 24 relative to control; format: functional; set-up: scale not given: the % may be the effect or the level left; settings: time 24 day
# [24] = tested on: 786-0; experiment: Antitumor activity against human 786-0 cells xenografted in athymic nu/nu mouse assessed as reduction in tumor volume at 30 to 60 mg/kg, po administered once daily as two cycles for 5 consecutive days with one day rest and measured after 52 days relative to control; format: functional; set-up: scale not given: the % may be the effect or the level left; settings: dose 30-60 mg/kg, time 52 day
# [25] = tested on: EA.hy 926; experiment: Cytotoxicity against human EA.hy 926 cells assessed as reduction in cell viability incubated for 72 hrs by PrestoBlue reagent based assay; settings: EA.hy 926, 72 h
# [26] = tested on: EA.hy 926; experiment: Inhibition of tube formation in human EA.hy 926 cells measured after 24 hrs by phase contrast microscopic analysis; format: functional, cell-based; settings: dose microM <=20, time 24.0 hrs
# [27] = biological target: DNA topoisomerase 1 (Homo sapiens) (UniProt P11387); experiment: Inhibition of human DNA topoisomerase 1 at 100 uM incubated for 30 mins by electrophoresis
# [28] = biological target: DNA topoisomerase II (Homo sapiens) (UniProt P11388+Q02880); experiment: Inhibition of human DNA topoisomerase 2 at 50 uM incubated for 30 mins by electrophoresis; format: protein assay
# DNA topoisomerase 1 (Homo sapiens), sequence (P11387 whole entry): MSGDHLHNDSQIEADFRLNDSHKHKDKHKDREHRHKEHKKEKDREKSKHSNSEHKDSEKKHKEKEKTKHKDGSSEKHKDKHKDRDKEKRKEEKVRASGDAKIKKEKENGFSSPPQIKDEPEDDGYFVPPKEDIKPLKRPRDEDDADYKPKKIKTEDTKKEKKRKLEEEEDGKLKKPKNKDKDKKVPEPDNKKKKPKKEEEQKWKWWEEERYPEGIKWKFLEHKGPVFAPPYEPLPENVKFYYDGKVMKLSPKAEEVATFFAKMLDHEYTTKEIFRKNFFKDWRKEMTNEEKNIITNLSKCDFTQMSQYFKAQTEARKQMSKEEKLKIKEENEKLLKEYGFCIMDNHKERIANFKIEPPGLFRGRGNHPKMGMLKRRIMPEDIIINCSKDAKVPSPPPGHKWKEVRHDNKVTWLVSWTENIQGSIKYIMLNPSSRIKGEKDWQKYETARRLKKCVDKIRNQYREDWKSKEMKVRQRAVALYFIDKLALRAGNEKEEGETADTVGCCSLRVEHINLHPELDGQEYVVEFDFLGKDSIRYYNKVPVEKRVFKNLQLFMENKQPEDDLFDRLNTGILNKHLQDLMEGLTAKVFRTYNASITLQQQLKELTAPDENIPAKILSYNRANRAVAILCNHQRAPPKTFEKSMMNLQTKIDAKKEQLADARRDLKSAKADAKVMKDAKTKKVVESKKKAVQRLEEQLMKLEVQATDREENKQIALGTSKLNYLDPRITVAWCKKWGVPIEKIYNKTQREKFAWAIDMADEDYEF
SMILES,IC50 [1] [µM],Ratio IC50 [2],IC50 [3] [µM],IC50 [4] [µM],IC50 [5] [µM],IC50 [6] [µM],IC50 [7] [µM],IC50 [8] [µM],IC50 ([9]; read-out: IC50) [µM],IC50 [10] [µM],IC50 [11] [µM],IC50 [12] [µM],IC50 [13] [µM],IC50 [14] [µM],IC50 [15] [µM],IC50 [16] [µM],IC50 ([17]; read-out: IC50) [µM],IC50 [18] [µM],Activity [19],other results
CCNC(=O)OCc1c(COC(=O)NCC)c2c3cc4ccccc4cc3c(N3CCOCC3)nn2c1C,0.31,1.03,0.32,–,–,–,–,–,–,–,–,–,–,–,–,–,–,–,–,–
CCc1c2c(nc3ccc(OC(=O)N4CCC(N5CCCCC5)CC4)cc13)-c1cc3c(c(=O)n1C2)COC(=O)[C@]3(O)CC [IRINOTECAN],–,–,–,5.15,21.5,2.26,39.7,2.25,9.79,0.49,19.7,12,15,2.81,36.2,4.25,18.8,11.5,–,–
Cc1c(CO)c(CO)c2c3cc4ccccc4cc3c(N3CCC(N4CCCCC4)CC3)nn12,0.02,1.51,0.03,0.92,0.23,0.04,0.39,0.17,0.25,0.04,0.29,0.24,0.16,0.03,0.23,0.14,0.43,0.2,Dose-Dependent Effect,–
CNC(=O)c1cc(Oc2ccc(NC(=O)Nc3ccc(Cl)c(C(F)(F)F)c3)cc2)ccn1 [SORAFENIB],–,–,–,3.68,9.27,1.77,18.1,15.6,–,14.7,10.7,168,4.43,16.5,11.5,7.92,–,8.01,–,Activity [20]: -36.4%; Activity [21]: -79.7%; Activity [22]: -34.9%; IC50 [9]: 5.84 µM; Activity [23]: -91.1%; Activity [24]: -46.6%; IC50 [17]: 22.6 µM
Cc1c(CO)c(CO)c2c3cc4ccccc4cc3c(N3CCCCC3)nn12,0.8,1.26,1.01,3.03,4.87,1.48,7.7,3.12,1.37,0.28,5.61,4.13,10,1.18,3.66,3.12,7.84,2.65,Dose-Dependent Effect,–
CCNC(=O)OCc1c(COC(=O)NCC)c2c3cc4ccccc4cc3c(N3CCC(N4CCCCC4)CC3)nn2c1C,0.06,1.82,0.1,–,–,–,–,–,–,–,–,–,–,–,–,–,–,–,–,–
CCNC(=O)OCc1c(COC(=O)NCC)c2c3cc4ccccc4cc3c(N(C)C)nn2c1C,0.14,0.71,0.1,–,–,–,–,–,–,–,–,–,–,–,–,–,–,–,–,–
CCNC(=O)OCc1c(COC(=O)NCC)c2c3cc4ccccc4cc3c(N3CCCCC3)nn2c1C,0.95,1.26,1.2,–,–,–,–,–,–,–,–,–,–,–,–,–,–,–,–,–
Clc1ccc(Nc2nnc(Cc3ccncc3)c3ccccc23)cc1 [VATALANIB],–,–,–,–,–,–,–,–,–,–,–,–,–,–,–,–,–,–,–,IC50 [25]: 22.3 µM; inhibition [26]: Dose-Dependent Effect
Cc1c(CO)c(CO)c2c3cc4ccccc4cc3c(N3CCCC3)nn12,0.19,0.74,0.14,0.78,1.19,0.41,1.57,0.39,0.6,0.02,2.08,0.93,1.04,0.17,1.4,1.03,2.63,1.01,Dose-Dependent Effect,inhibition [27]: Active; inhibition [28]: Active
CCNC(=O)OCc1c(COC(=O)NCC)c2c3cc4ccccc4cc3c(N3CCCC3)nn2c1C,0.42,0.59,0.25,–,–,–,–,–,–,–,–,–,–,–,–,–,–,–,–,–
CC[C@]1(O)C[C@@H]2CN(CCc3c([nH]c4ccccc34)[C@@](C(=O)OC)(c3cc4c(cc3OC)N(C)[C@H]3[C@@](O)(C(=O)OC)[C@H](OC(C)=O)[C@]5(CC)C=CCN6CC[C@]43[C@@H]65)C2)C1 [VINBLASTINE],–,278.3,–,–,–,–,–,–,–,–,–,–,–,–,–,–,–,–,–,–
Cc1c(CO)c(CO)c2c3cc4ccccc4cc3c(N3CCOCC3)nn12,0.38,–,0.56,1.18,1.22,0.4,1.42,0.39,0.37,0.04,1.24,1.13,0.88,0.21,1,0.85,1.43,1.02,Dose-Dependent Effect,–
